Data reported in PubChem BioAssay (NCI).
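Interpolation was linear, between the two tested concentrations surrounding the appropriate level; five concentrations were tested over 48 hours in 96-well plates. TGI denotes the concentration required for complete inhibition of growth.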

Assays:
Assay in all cases: NCI anticancer screen, dose series, 48 h
UACC-62 melanoma = tested on: UACC-62 melanoma
TK-10 renal = tested on: TK-10 renal
MOLT-4 leukemia = tested on: MOLT-4 leukemia
CCRF-CEM leukemia = tested on: CCRF-CEM leukemia
A498 renal = tested on: A498 renal
UO-31 renal = tested on: UO-31 renal
ACHN renal = tested on: ACHN renal
MDA-N = tested on: MDA-N
SK-MEL-28 melanoma = tested on: SK-MEL-28 melanoma
SK-OV-3 ovarian = tested on: SK-OV-3 ovarian

Compound	TGI (UACC-62 melanoma)	TGI (TK-10 renal)	TGI (MOLT-4 leukemia)	TGI (CCRF-CEM leukemia)	TGI (A498 renal)	TGI (UO-31 renal)	TGI (ACHN renal)	TGI (MDA-N)	TGI (SK-MEL-28 melanoma)	TGI (SK-OV-3 ovarian)
O=C1C=CC(=O)c2c(O)c(N3CCOCC3)c(Cl)c(O)c21	1.41 µM	1.79 µM	> 2.13 µM	> 10 µM	3.01 µM	0.892 µM	0.739 µM	0.396 µM	0.786 µM	6.22 µM
CSc1nnc(SCc2nn3c(=O)cc(C)nc3s2)s1	> 100 µM	> 100 µM	> 100 µM	> 100 µM	> 100 µM	> 100 µM	> 100 µM	> 100 µM	> 100 µM	> 100 µM
Cc1nc2ccc(Br)cc2c(=O)n1-c1ccc(N)cc1	> 100 µM	> 100 µM	> 100 µM	> 100 µM	> 100 µM	> 100 µM	> 100 µM	> 100 µM	> 100 µM	> 100 µM
Oc1cccc2c(Br)ccnc12	11.1 µM	> 100 µM	6.91 µM	4.1 µM	39.1 µM	21.6 µM	27.5 µM	> 50.4 µM	38.3 µM	66.8 µM
O=C1C=C(N2CCN(c3ncccn3)CC2)C(=O)c2c(O)ccc(O)c21	> 100 µM	> 100 µM	> 100 µM	> 100 µM	> 100 µM	> 100 µM	> 100 µM	31.3 µM	> 100 µM	> 100 µM
O=C1CCCCC/C1=C\c1cccc(F)c1	> 100 µM	> 100 µM	> 100 µM	81.4 µM	> 100 µM	> 100 µM	> 100 µM	> 100 µM	> 100 µM	> 100 µM
O=[N+]([O-])c1ccc(N2N=C(c3c(O)ccc4ccccc34)CC2c2ccc(Cl)cc2)c([N+](=O)[O-])c1 (stereo not drawn)	60.4 µM	> 100 µM	32.4 µM	31 µM	63.9 µM	> 100 µM	> 100 µM	> 100 µM	> 100 µM	> 100 µM
O=c1[nH]nc(-c2ccccc2)c2[nH]c3c(c12)Cc1ccccc1-3	2.69 µM	> 100 µM	> 25.2 µM	> 100 µM	> 100 µM	> 100 µM	> 100 µM	> 27.4 µM	> 100 µM	> 100 µM
O=C1C=CC2(O[C@H](C3CCCCC3)[C@@H](C3CCCCC3)O2)C(SC(=O)c2ccccc2)C1 (stereo partly drawn)	8.57 µM	5.62 µM	3.77 µM	5.87 µM	18.4 µM	4.31 µM	6.43 µM	7.2 µM	3.15 µM	33.5 µM
CC(C)(C)c1cc(OCc2nnc3sc(Cc4ccccc4)nn23)c(Cl)cc1OCc1nnc2sc(Cc3ccccc3)nn12	49.8 µM	82.9 µM	> 100 µM	8.97 µM	67.2 µM	> 100 µM	68 µM	> 100 µM	> 100 µM	> 100 µM
Nc1ccc2c(=O)cc(-c3ccc(Br)s3)[nH]c2n1	> 100 µM	> 100 µM	13.2 µM	> 100 µM	> 100 µM	> 23.2 µM	> 100 µM	1.29 µM	> 100 µM	> 53.1 µM
COc1ccc(-n2c(N)c(C#N)c(C#N)c2-c2ccco2)cc1	> 100 µM	> 100 µM	> 100 µM	> 100 µM	> 100 µM	> 100 µM	> 100 µM	> 100 µM		> 100 µM
NC1CCCCC1NCCNC1CCCCC1N (stereo not drawn)	> 100 µM	> 100 µM	> 100 µM	> 100 µM	> 100 µM	> 100 µM	> 100 µM	> 100 µM	> 100 µM	> 100 µM
CC(OP(=O)(O)O)C(N)C(=O)O (stereo not drawn)	> 100 µM	> 100 µM	> 100 µM	> 100 µM	> 100 µM	> 100 µM	> 100 µM	> 100 µM	> 100 µM	> 100 µM
Cc1ccc(S(=O)(=O)OCCC2CN(C(=O)OCc3ccccc3)C(C)(C)O2)cc1 (stereo not drawn)	> 100 µM	> 100 µM	47.8 µM	> 100 µM	> 100 µM	15.4 µM	64.9 µM	> 100 µM	82.1 µM	> 100 µM
O=c1cc(N2CCOCC2)n2c(ccc3ccccc32)n1	> 100 µM	> 100 µM	> 100 µM	> 100 µM	> 100 µM	> 100 µM	> 100 µM	63 µM		> 100 µM
CCOc1ccc2nc3nc(=O)[nH]c(C)c3c(NC(C)(CO)CO)c2c1	> 100 µM	> 100 µM	> 100 µM	> 100 µM	> 100 µM	> 100 µM	> 100 µM	> 100 µM	> 100 µM	> 100 µM
CC(=O)/C=C/c1ccccc1	> 100 µM	> 100 µM	> 100 µM	> 100 µM	76.3 µM	> 100 µM	> 100 µM	91.9 µM	> 100 µM	> 100 µM
